Test results: US20240277708A1, “Use of [1,2,4] Triazolo [4,3-B] Pyridazine Derivative For Preventing and Treating Senescence and Senescence-Related Diseases” (The Eighth Affiliated Hospital, Sun Yat-Sen University, priority 2023, published 2024)

Test system: C57BL/6 mice, CCl4 liver fibrosis model
Assay: CCl4-induced liver fibrosis mouse model, collagen staining of liver sections
Format: in vivo
Conditions: 17 mg/kg C1632 after each CCl4 injection
Method: C57BL/6 mice were divided into normal control group, CCl4 group and CCl4+C1632 group, with 7 mice in each group. The mice in the CCl4+C1632 group were injected with 17 mg/kg C1632 for treatment after each injection of CCl4. At the end of the experiment, the mice were sacrificed, and the obtained livers were fixed with 4% paraformaldehyde, dehydrated, embedded and sliced.
1. The collagen fibers in the tissue were stained blue through Masson staining, and the muscle fibers and cytoplasm were stained red through Masson staining. The sections were routinely deparaffinized to water and stained with Weigert's hematoxylin for 5 to 10 minutes. The sections were differentiated with 1% hydrochloric alcohol differentiation solution and washed with water. The sections was returned blue by using Masson bluing solution and washed with water for 1 min. The sections were stained with Ponceau fuchsin staining solution for 5 to 10 min, soaked in 1% glacial acetic acid for a moment, then washed with the phosphomolybdic acid solution for 1 to 2 min. The sections were stained in the aniline blue staining solution for 1 to 2 min after washed with 1% glacial acetic acid for 1 min. The sections were rinsed with 1% glacial acetic acid in three consecutive cylinders for about 8 s, then successively dehydrated by three consecutive cylinders of absolute ethanol for about 5 s, 10 s, and 30 s, and dehydrated by two cylinders of n-butyl alcohol for 30 s and 2 min in turn, and finally permeabilized by two cylinders of xylene for 5 min each time, and sealed with neutral gum.
2. To further verify the effect of C1632 on liver fibrosis, the above tissue sections were subjected to Van Gieson (VG) staining, which was a mature connective tissue staining method to distinguish collagen fibers from muscle fibers. Paraffin sections were deparaffinized into water, and then placed into VG staining solution prepared with acid fuchsin and picric acid, stained for 1 min, quickly washed with water, and quickly dehydrated in three cylinders of absolute ethanol. The sections were placed into xylene for permeabilizing, then sealed with neutral gum and photographed under a microscope.
The sections deparaffinized to water were oxidized with Gordon-Sweets oxidizer for 5 min. After washing with water, the sections were bleached with oxalic acid solution for 1 to 2 min. After washing with distilled water, the sections were mordanted with ferric ammonium sulfate solution for 5 min, then rinsed briefly with water. Gordon-Sweets silver ammonia solution was dropwise added for staining for 3 min. The sections were briefly washed with distilled water, reduced with Gordon-Sweets reducing agent for 1 min and rinsed under running water for 10 min. The nucleus was stained with nuclear fast red staining solution for 5-10 min. […]

CC(=O)N(C)c1cccc(-c2ccc3nnc(C)n3n2)c1 [C1632]
Collagen fibers in liver tissue, Masson staining (twice a week for 6 weeks, FIG. 5): can inhibit the expression of collagen fibers induced by CCl4
Collagen fiber levels in liver tissue, Van Gieson (VG) staining (FIG. 6): significantly reduces collagen fiber levels
Reticular fibers in liver tissue, reticular fiber staining (FIG. 7): can inhibit the expression of reticular fibers induced by CCl4
Type I collagen production in liver, Sirius red staining (polarized light, FIG. 8): can significantly inhibit the production of type I collagen
